One data set concerns A. fumigatus. Conditions: A. fumigatus TIMM No. 0063; cited from earlier work.
The next data set deals with S. cerevisiae DKD5D. The data set can be described thus: Sensitivity of parent strain to aureobasidin. It is filed as cell-based, Saccharomyces cerevisiae. The protocol: (§1) Then resistant mutants were separated on an agar plate of a complete nutritional medium YPD (1% of yeast extract, 2% of polypeptone, 2% of glucose) containing 5 μg/ml or 1.5 μg/ml of aureobasidin A. After repeating the mutagenesis several times, 34 mutant clones were obtained.

In another data set the test system is A. terreus. The note with it: A. terreus TIMM No. 0120; cited from earlier work.
The next data set relates to Cr. terreus. Conditions: Cr. terreus TIMM No. 0424; cited from earlier work.
Data set [1] has as its system Schizo. pombe haploid cell strain JY745. Description: Sensitivity of parent strain to aureobasidin.
A further data set relates to Histoplasma capsulatum. The note with it: cited from earlier work.
Data set [2] relates to Sake yeast Kyokai K-701/pAUR1. Description: Aureobasidin sensitivity of transformant after subculture without aureobasidin A. Conditions: K-701/pAUR1 vs Sake yeast Kyokai K-701.
The next data set deals with C. guilliermondii. The note with it: C. guilliermondii TIMM No. 0257; cited from earlier work.
The test system of another data set is Cladosporium bantianum. The note with it: Cladosporium bantianum TIMM No. 0343; cited from earlier work.
Another data set concerns A. nidulans FGSC89. The data set can be described thus: Sensitivity of parent strain to aureobasidin.
Data set [3] relates to A. nidulans FGSC89 aureobasidin resistant colonies. The data set can be described thus: Drug resistance of aureobasidin resistant mutants of A. nidulans. Conditions: for sensitivities of the resistant cells compared with the parent strain: UV-induced resistant colonies vs FGSC89.
Data set [4] deals with Sake yeast Kyokai K-701 transformants. The data set can be described thus: Aureobasidin A resistance of sake yeast transformants obtained with StuI-linearized plasmids. Conditions: transformants by StuI-linearized plasmids, after subculture over several generations.
The subject of a further data set is C. parapsilosis. The note with it: C. parapsilosis TIMM No. 0287; cited from earlier work.
In the next data set the test system is Geotrichum candidum. Conditions: Geotrichum candidum TIMM No. 0694; cited from earlier work.
A further data set relates to Exophiala werneckii. The note with it: Exophiala werneckii TIMM No. 1334; cited from earlier work.
In data set [5] the test system is S. cerevisiae DKD5D resistant mutant clones. Description: Resistance of aureobasidin resistant mutants of S. cerevisiae. In kind it is cell-based, Saccharomyces cerevisiae. Conditions: 34 EMS mutant clones of DKD5D. As for the experimental part:
as §1

In another data set the test system is C. kefyr. Conditions: C. kefyr TIMM No. 0298; cited from earlier work.
The next data set has as its system C. krusei. Conditions: C. krusei TIMM No. 0270; cited from earlier work.
A further data set relates to C. glabrata. The note with it: C. glabrata TIMM No. 1062; cited from earlier work.
In the next data set the test system is Blastomyces dermatitidis. The note with it: Blastomyces dermatitidis TIMM No. 0126; cited from earlier work.
For another data set, the system named is C. albicans. Conditions: C. albicans TIMM No. 0136; cited from earlier work.
Data set [6] concerns Paracoccidioides brasiliensis. The note with it: Paracoccidioides brasiliensis TIMM No. 0880; cited from earlier work.
Another data set concerns C. tropicalis. The note with it: C. tropicalis TIMM No. 0312; cited from earlier work.
Another data set has as its system Epidermophyton floccosum. Conditions: Epidermophyton floccosum TIMM No. 0431; cited from earlier work.
The conditions of data set [7]: cited from earlier work.
The conditions of data set [8]: in contrast to existing antimycotics with only a fungistatic action; cited from earlier work.
For the next data set, the system named is mouse lymphoma L5178Y. Description: MIC of aureobasidin, test strain or cell (Table 3). It is filed as cell-based.
Data set [9] relates to Sake yeast Kyokai K-701 transformants. Description: Aureobasidin A resistance of sake yeast transformants obtained with pYCscaur1R-C. The note with it: transformants by pYCscaur1R-C, after subculture over several generations.
In another data set the test system is A. clavatus. The note with it: A. clavatus TIMM No. 0056; cited from earlier work.
For another data set, the system named is A. nidulans. The note with it: A. nidulans TIMM No. 0112; cited from earlier work.
A further data set deals with Cr. neoformans. The note with it: Cr. neoformans TIMM No. 0354; cited from earlier work.
Another data set relates to mouse lymphoma EL-4. Description: MIC of aureobasidin, test strain or cell (Table 3). In kind it is cell-based.
The test system of data set [10] is C. albicans var. stellatoidea. Conditions: C. albicans var. stellatoidea TIMM No. 1308; cited from earlier work.
Another data set relates to S. cerevisiae. Description: MIC of aureobasidin, test strain or cell (Table 3). In kind it is cell-based, Saccharomyces cerevisiae.
Data set [11] concerns C. albicans TIMM0136 transformants. The data set can be described thus: MIC for C. albicans transformants obtained with SalI-linearized pUscaur1R-C. The note with it: C. albicans TIMM0136 transformants by SalI-linearized pUscaur1R-C. It is filed as cell-based, Candida albicans. The protocol: 14-a) 5 μg of a linear plasmid, which had been prepared by cleaving pUscaur1^R-C with SalI capable of cleaving at one point in the pUC119 region, was transformed into C. albicans TIMM0136 by the lithium acetate method.

A further data set has as its system Schizo. pombe. Description: MIC of aureobasidin, test strain or cell (Table 3). It is filed as cell-based, Schizosaccharomyces pombe.
Data set [12] concerns Trichophyton mentagrophytes. Conditions: Trichophyton mentagrophytes TIMM No. 1189; cited from earlier work.
The subject of another data set is Fonsecaea pedrosoi. Conditions: Fonsecaea pedrosoi TIMM No. 0482; cited from earlier work.
A further data set deals with Rhodotorula rubra. Conditions: Rhodotorula rubra TIMM No. 0923; cited from earlier work.
The subject of data set [13] is Schizo. pombe diploid cells (resistant strains x LH121). Description: Resistance of diploids formed by crossing resistant strains with normal strain LH121. In kind it is cell-based, Schizosaccharomyces pombe. Conditions: five diploids, resistant strains crossed with LH121.
A further data set deals with Penicillium commune. Conditions: Penicillium commune TIMM No. 1331; cited from earlier work.
For a further data set, the system named is NRK-49F. Description: MIC of aureobasidin, test strain or cell (Table 3). It is filed as cell-based.

≈ marks a conversion by molar mass, not a printed value. *1 amine or outer side, *2 acyl side, *3 side chain or, on linkers, in order; H or OH if unused. Where a SMILES comes first, the peptide text is derived from it. [ ]: non-standard residue; d: D form. X1 = CC[C@@H](C)[C@@H](O[*:1])C(=O)[*:2]; NMeVal(β-OH) = CN[C@H](C(=O)O)C(C)(C)O; NMeF = CN[C@@H](Cc1ccccc1)C(=O)O; aIle = CC[C@@H](C)[C@H](N)C(=O)O; NMeV = CN[C@H](C(=O)O)C(C)C

A word on the MIC: it is the smallest concentration in the dilution series that meets the test's criterion for growth inhibition. Take `CC[C@@H](C)[C@@H]1NC(=O)[C@@H]2CCCN2C(=O)[C@H](Cc2ccccc2)N(C)C(=O)[C@H](Cc2ccccc2)NC(=O)[C@H](C(C)C)N(C)C(=O)[C@@H]([C@H](C)CC)OC(=O)[C@H](C(C)(C)O)N(C)C(=O)[C@H](CC(C)C)NC(=O)[C@H](C(C)C)N(C)C1=O` [aureobasidin A] (cyclo(F[NMeF]P[aIle][NMeV]L[NMeVal(β-OH)][X1][NMeV])): the MIC in the data set on A. fumigatus was 20 µg/mL (≈ 18.2 µM); with A. terreus, 5 µg/mL (≈ 4.54 µM); in the data set on Cr. terreus, 0.31 µg/mL (≈ 0.281 µM); in the data set with Histoplasma capsulatum it was 0.16 µg/mL (≈ 0.145 µM); in the data set with C. guilliermondii it was 0.08 µg/mL (≈ 0.0726 µM); with Cladosporium bantianum, 0.63 µg/mL (≈ 0.572 µM). Also, the MIC in the data set with C. parapsilosis was 0.16 µg/mL (≈ 0.145 µM); in the data set on Geotrichum candidum, 0.63 µg/mL (≈ 0.572 µM); with Exophiala werneckii, 1.25 µg/mL (≈ 1.13 µM); in the data set on C. kefyr it was 0.16 µg/mL (≈ 0.145 µM); in the data set with C. krusei, “≦0.04 μg/ml”; in the data set on C. glabrata it was “≦0.04 μg/ml”. For the same compound, the minimal inhibitory concentration (MIC) in the data set with Blastomyces dermatitidis is 0.31 µg/mL (≈ 0.281 µM); in the data set on C. albicans it was “≦0.04 μg/ml”; in [6], 0.31 µg/mL (≈ 0.281 µM); in the data set with C. tropicalis, 0.08 µg/mL (≈ 0.0726 µM); in the data set with Epidermophyton floccosum, 2.5 µg/mL (≈ 2.27 µM); in the data set with mouse lymphoma L5178Y, 100 µg/mL. In addition, the minimal inhibitory concentration (MIC) with A. clavatus was 0.16 µg/mL (≈ 0.145 µM); in the data set with A. nidulans, 0.16 µg/mL (≈ 0.145 µM); with Cr. neoformans, 0.63 µg/mL (≈ 0.572 µM); in the data set on mouse lymphoma EL-4 it was 10 µg/mL; in [10] it was “≦0.04 μg/ml”; in the data set with S. cerevisiae it was 0.31 µg/mL. Further, the MIC is at least 10 µg/mL in data set [11]; 0.08 µg/mL with Schizo. pombe; 10 µg/mL (≈ 9.08 µM) in data set [12]; 0.31 µg/mL (≈ 0.281 µM) with Fonsecaea pedrosoi; 0.63 µg/mL (≈ 0.572 µM) in the data set on Rhodotorula rubra; 1.25 µg/mL (≈ 1.13 µM) in the data set on Penicillium commune. The MIC with NRK-49F was 12.5 µg/mL. Also, the “sensitivity to aureobasidin at a concentration of” value in the data set on S. cerevisiae DKD5D is 0.31 µg/mL; in data set [1], 0.08 µg/mL. Further, the “aureobasidin resistance relative to the parent strain” value in data set [2] is “eight times”. Further, the “sensitivity to aureobasidin at” value in the data set on A. nidulans FGSC89 worked out at 5 µg/mL. In addition, the “resistance to (concentration of aureobasidin)” value in data set [3] (eight UV-induced resistant colonies) stood at 80 µg/mL. Also, the “aureobasidin A resistance relative to the parent strain” value in data set [4] and in [9] was “at least 10 times” throughout. The “resistant to (concentration of aureobasidin A)” value in data set [5] was “more than 25 μg/ml”; in data set [13], 25 µg/mL. In addition, the toxicity in mammal entry in data set [7] is “extremely low toxicity”. Besides, the “action (germicidal versus fungistatic)” value in [8] is given as “germicidal action”.
Turning to `Clc1ccccc1C(c1ccccc1)(c1ccccc1)n1ccnc1` [clotrimazole], in data set [3], the “sensitivities of the resistant cells compared with the parent strain” value is “the same as the parent strain”.
Still for that read-out and setting: the result for `C[C@@H]1C[C@@H]([C@H](O)CC2CC(=O)NC(=O)C2)C(=O)[C@@H](C)C1` [cycloheximide] reads “the same as the parent strain”; that for `C[C@@H]1[C@H](O)[C@@H](C)/C=C/C=C/C=C/C=C/C=C/C=C/C=C/[C@H](O[C@@H]2O[C@H](C)[C@@H](O)[C@H](N)[C@@H]2O)C[C@@H]2O[C@](O)(C[C@@H](O)C[C@@H](O)[C@H](O)CC[C@@H](O)C[C@@H](O)CC(=O)O[C@H]1C)C[C@H](O)[C@H]2C(=O)O` [amphotericin B], “the same as the parent strain”.

These data come from patent US6693174B2, “Gene regulating aureobasidin sensitivity” (Takara Shuzo Co., Ltd., priority 1993, dated 2004).
